# Measurements reported in patent US10752913B2, “Selectable marker genes” (Dow AgroSciences LLC, priority 2006, dated 2020).
# Experiments:
# Type in all cases: cell-based
# [1] = system: Escherichia coli BL21—Star (DE3); assay: Bacterial growth on minimal media containing glufosinate (BASTA); conditions: only strain of five tested
# Experimental: Selected cell lines of Escherichia coli and Agrobacterium tumefaciens were inoculated on minimal media containing incrementally increasing concentrations of Glufosinate (BASTA). The cell lines; BL21—Star (DE3), Top10, DH5═, Agrobacterium tumefaciens C58, and Agrobacterium tumefaciens LBA4404s were initially grown up on complex media. The Escherichia coli strains were grown in LB and the Agrobacterium tumefaciens strains were grown in YEP. Five microliters of bacterial culture was inoculated and dispersed evenly onto minimal media plates containing various concentrations of glufosinate. The concentrations consisted of 0 μg/ml, 250 μg/ml, 500 μg/ml, 1000 μg/ml, 2000 μg/ml, and 4000 μg/ml of BASTA. In addition, the bacterial strains were inoculated onto a plate of complex media as a control—Agrobacterium tumefaciens strains were inoculated on YEP agar plates, and Escherichia coli strains were inoculated on LB agar plates. The plates containing the Escherichia coli strains were incubated at 37° C. for 24 hours. The plates containing the Agrobacterium tumefaciens strains were incubate at 25° C. for 48 hours. […] Table 7 illustrates the capability of the various strains to grow on minimal media containing glufosinate.
# [2] = system: Escherichia coli BL21—Star (DE3) with 3264 (CsVMV promoter//DSM-2); assay: Complementation on glufosinate with plant/viral promoters; conditions: DSM-2 driven by CsVMV promoter
# Experimental: (§1) Plasmid constructs in which the DSM-2 (v2) and PAT gene coding sequences were expressed, under either the viral promoters CsVMV or the plant promoter AtUbi10, were assayed for complementation on minimal media containing glufosinate. The plasmids 3778 (Rb7 MARv3//AtUbi10 promoter//DSM-2 (v2)//Atu Orf 1 3′UTR), 3779 (Rb7 MARv3//AtUbi10 promoter//PAT//Atu Orf 1 3′UTR), 3264 (CsVMV promoter//DSM-2//Atu Orf24 3′UTR), 3037 (CsVMV promoter//PAT//Atu Orf 25/26 3′UTR), and 770 (control plasmid containing CsVMV promoter//GUS v3//Atu Orf 24 3′UTR) were transformed into Escherichia coli BL21—Star (DE3) and grown up in complex media. Five microliters of the cultures were plated on minimal media containing increasing concentrations of Glufosinate and incubated at 37° C. for 48 hours.
# [3] = system: Escherichia coli BL21—Star (DE3) with 3778 (AtUbi10 promoter//DSM-2 (v2)); assay: as above; conditions: DSM-2 driven by At Ubi10 promoter
# Experimental: as §1
# [4] = system: Escherichia coli BL21—Star (DE3) expressing DSM-2 (v2) (pDAB4412); assay: Complementation of cell growth on glufosinate, pET expression
# Description: A pET28a(+) expression plasmid containing PAT (v3) was constructed as a positive control. PAT (v3) was cloned as an NcoI-SacI fragment into corresponding restriction sites of pDAB779. Positive clones containing the PAT (v3) gene fragment were verified via restriction enzyme digestion. This construct was labeled as pDAB4434.
# The plasmids, pDAB4434, pDAB4412, and an empty pET vector (control) were transformed into Escherichia coli BL21—Star (DE3) bacterial cells. Expression cultures were initiated with 10-200 freshly transformed colonies into 250 mL LB medium containing 50 μg/ml antibiotic and 75 μM IPTG (isopropyl-[…]). The cultures were grown at 28° C. for 24 hours at 180-200 rpm. Five microliters of the culture was inoculated onto a complex media control and minimal media containing incrementally increasing concentrations of glufosinate and 20 μM IPTG. The cultures were dispersed evenly over the plates and incubated at 28° C. for 24 hours.
# [5] = system: NT-1 tobacco cells transformed with pDAB3778 (DSM-2); assay: Tobacco cell culture transformation, selection frequency; conditions: second experiment
# Experimental: Four days prior to transformation, a 1 week old NT-1 tobacco suspension, which was being subcultured every 7 days, was subcultured to fresh medium by adding 2 ml of the NT-1 culture or 1 ml of packed cells into 40 ml NT-1 B media. The subcultured suspension was maintained in the dark at 25±1° C. on a shaker at 125 rpm.
# A 50% glycerol stock of Agrobacterium tumefaciens [strain LBA4404] harboring a binary vector of interest was used to initiate a liquid overnight culture by adding 20, 100, or […] to 30 ml YEP liquid (10 g/L yeast extract, 10 g/L Peptone, 5 g/L NaCl, 0-10 g/L Sucrose) containing 50-100 mg/L spectinomycin. The bacterial culture was incubated in the dark at 28° C. in an incubator shaker at 150-250 rpm until the OD600 was 1.5±0.2. This took approximately 18-20 hrs.
# For each vector tested, 20-70 mL of 4-day old suspension cells were transferred into a sterile vessel, to which 500-1750 μl of Agrobacterium suspension at the proper OD was added. To ensure a uniform mixture was achieved, the cells were pipetted up and down 5 times with a 10 ml wide-bore pipet. The uniform suspension was then drawn up into a 25 ml barrel of a repeat pipetter and 250 μl of the suspension was dispensed per well into 24-well plates, continuing until the suspension was exhausted. The well plates were wrapped in parafilm and cultured in the dark at 25±1° C. without shaking for a 3 day co-cultivation.
# Following the co-cultivation, all excess liquid was removed from the individual wells with a 1 mL pipet tip, and remaining cells were resuspended in 1 ml NTC liquid (NT-1 B medium containing 500 mg/L carbenicillin, added after autoclaving). The contents of an individual well were dispersed across the entire surface of 100×25 mm selection plates using disposable transfer pipets. Selection media consisted of NTC media solidified with 8 g/l TC agar supplemented with 7.5 to 15 mg/L bialaphos or technical grade glufosinate ammonium, added after autoclaving. All selection plates, left unwrapped, were maintained in the dark at 28° C.
# Putative transformants appeared as small clusters of callus on a background of dead, non-transformed cells. Calli were isolated approximately 2-6 weeks post-transformation. Each callus isolate was transferred to its own 60×20 mm plate containing the same selection medium and allowed to grow for approximately 2 weeks before being submitted for analysis.
# A side-by-side experiment comparing DSM-2 (v2) with PAT was completed. In the study, 100% of the PAT selection plates produced at least one PCR positive isolate on 10 mg/L bialaphos media, whereas 79% of the DSM-2 (v2) selection plates produced at least one PCR positive isolate.
# In a second experiment, DSM-2 (v2)-treated tobacco cells were selected upon 7.5, 10, 12.5, or 15 mg/L bialaphos or technical grade glufosinate ammonium. Transformation frequencies (% of selection plates producing at least one callus) following verification by coding region PCR are listed in the table below.
Compound,inhibition of growth on minimal media [1],glufosinate concentration in minimal media to which resistance was provided [2],glufosinate concentration in minimal media to which resistance was provided [3],glufosinate concentration on minimal media to which DSM-2 expression complemented resistance [4],Transformation frequencies (% of selection plates producing at least one callus) following verification by coding region PCR ([5]; 7.5 mg/L in selection medium),Transformation frequencies (% of selection plates producing at least one callus) following verification by coding region PCR ([5]; 10 mg/L in selection medium),Transformation frequencies (% of selection plates producing at least one callus) following verification by coding region PCR ([5]; 12.5 mg/L in selection medium),Transformation frequencies (% of selection plates producing at least one callus) following verification by coding region PCR ([5]; 15 mg/L in selection medium)
CP(=O)(O)CCC(N)C(=O)O (stereo not drawn) [glufosinate],substantially inhibited,200 µg/mL,200 µg/mL,400 µg/mL,55.6%,50.0%,44.4%,38.9%
C[C@H](NC(=O)[C@H](C)NC(=O)[C@@H](N)CCP(C)(=O)O)C(=O)O [Bialaphos],–,–,–,–,38.9%,44.4%,38.9%,22.2%
